Assays:
[1] = tested on: Mus musculus; assay: Stimulation of spontaneous locomotor activity of compound was measured in mice at a dose of 0.0125 mmol/kg); format: functional
[2] = tested on: Mus musculus; assay: Stimulation of spontaneous locomotor activity of compound was measured in mice at a dose of 0.025 mmol/kg); format: functional; parameters: unit not given here
[3] = tested on: Mus musculus; assay: Stimulation of spontaneous locomotor activity of compound was measured in mice at a dose of 0.05 mmol/kg); format: functional; parameters: unit not given here
[4] = tested on: Mus musculus; assay: Stimulation of spontaneous locomotor activity of compound was measured in mice at a dose of 0.10 mmol/kg); format: functional; parameters: unit not given here
[5] = tested on: Mus musculus; assay: Stimulation of spontaneous locomotor activity of compound was measured in mice at a dose of 0.20 mmol/kg); format: functional
[6] = tested on: Mus musculus; assay: Modification of circling behavior in mice with unilateral striatal lesions produced by 6-hydroxydopamine injection was measured at a dose of 0.05 mmol/kg; format: functional
[7] = tested on: Mus musculus; assay: Modification of circling behavior in mice with unilateral striatal lesions produced by 6-hydroxydopamine injection was measured at a dose of 0.10 mmol/kg; format: functional
[8] = tested on: Mus musculus; assay: Modification of circling behavior in mice with unilateral striatal lesions produced by 6-hydroxydopamine injection was measured at a dose of 0.15 mmol/kg; format: functional
[9] = tested on: Mus musculus; assay: Modification of circling behavior in mice with unilateral striatal lesions produced by 6-hydroxydopamine injection was measured at a dose of 0.20 mmol/kg; format: functional
[10] = tested on: Mus musculus; assay: Stimulation of spontaneous locomotor activity of compound was measured in mice at a dose of 0.01 mmol/kg); format: functional
[11] = tested on: Mus musculus; assay: Stimulation of spontaneous locomotor activity of compound was measured in mice at a dose of 0.04 mmol/kg); format: functional
[12] = tested on: Mus musculus; assay: Modification of circling behavior in mice with unilateral striatal lesions produced by 6-hydroxydopamine injection was measured at a dose of 0.027 mmol/kg; format: functional
[13] = tested on: Mus musculus; assay: Stimulation of spontaneous locomotor activity of compound was measured in mice at a dose of 0.02 mmol/kg); format: functional
[14] = Partition coefficient (logP); format: physicochemical; conditions: octanol/water
[15] = tested on: Mus musculus; assay: Stimulation of spontaneous locomotor activity of compound was measured in mice at a dose of 0.1 mmol/kg); format: functional
[16] = tested on: Mus musculus; assay: Stimulation of spontaneous locomotor activity of compound was measured in mice at a dose of 0.2 mmol/kg); format: functional
[17] = tested on: Mus musculus; assay: Stimulation of spontaneous locomotor activity of compound was measured in mice at a dose of 0.4 mmol/kg); Lethal; format: functional, organism-based
[18] = tested on: Mus musculus; assay: Modification of circling behavior in mice with unilateral striatal lesions produced by 6-hydroxydopamine injection was measured at a dose of 0.1 mmol/kg; format: functional
[19] = tested on: Mus musculus; assay: Modification of circling behavior in mice with unilateral striatal lesions produced by 6-hydroxydopamine injection was measured at a dose of 0.013 mmol/kg; format: functional
[20] = tested on: Mus musculus; assay: Stimulation of spontaneous locomotor activity of compound was measured in mice at a dose of 0.15 mmol/kg); format: functional
[21] = tested on: Mus musculus; assay: Stimulation of spontaneous locomotor activity of compound was measured in mice at a dose of 0.30 mmol/kg); format: functional
[22] = tested on: Mus musculus; assay: Stimulation of spontaneous locomotor activity of compound was measured in mice at a dose of 0.4 mmol/kg); format: functional
[23] = tested on: Mus musculus; assay: Modification of circling behavior in mice with unilateral striatal lesions produced by 6-hydroxydopamine injection was measured at a dose of 0.2 mmol/kg; format: functional

CC12CC3CC(C)(C1)CC(N)(C3)C2 [MEMANTINE]
Activity [1]: 181
Activity [2]: 264
Activity [3]: 377
Activity [4]: 916
Activity [5]: 1378
Net turns/min [6]: 1
Net turns/min [7]: 2.6
Net turns/min [8]: 4.3
Net turns/min [9]: 2.6

CC(N)Cc1ccccc1 (stereo not drawn) [AMPHETAMINE]
Activity [10]: 177
Activity [11]: 993
Net turns/min [12]: 5.5
Activity [13]: 562

CCC12CC3CC(N)(C1)CC(CC)(C3)C2
logP [14]: 4.36
Activity [2]: 154
Activity [3]: 383
Activity [4]: 716
Activity [5]: 478
Net turns/min [7]: 1.6

CC12CC3(C)CC(C)(C1)CC(N)(C2)C3
logP [14]: 4.01
Activity [2]: 148
Activity [3]: 264
Activity [15]: 351
Activity [16]: 472
Activity [17]: Lethal
Net turns/min [8]: 1.2
Net turns/min [18]: 1

CC12CC3CC(C1)CC(N)(C3)C2
logP [14]: 3.01
Activity [3]: 37
Activity [15]: 144
Activity [16]: 383

CN1CCc2cccc3c2[C@H]1Cc1ccc(O)c(O)c1-3 [APOMORPHINE]
Net turns/min [19]: 2.6

CCCC12CC3CC(CC(N)(C3)C1)C2
logP [14]: 3.76
Activity [2]: 75
Activity [3]: 75
Activity [4]: 94

CCC12CC3CC(CC(N)(C3)C1)C2
logP [14]: 3.4
Activity [2]: 61
Activity [3]: 147
Activity [4]: 237
Activity [20]: 432
Activity [5]: 522
Activity [21]: 368
Net turns/min [6]: 1.3
Net turns/min [7]: 1.2
Net turns/min [8]: 2
Net turns/min [9]: 1.2

NC12CC3CC(CC(C3)C1)C2 [AMANTADINE]
logP [14]: 2.44
Activity [3]: 87
Activity [15]: 201
Activity [16]: 243
Activity [22]: 44
Net turns/min [23]: 1.1
